Where two headings read alike, the source gives them in different places. *1 amine or outer side, *2 acyl side, *3 side chain or, on linkers, in order; H or OH if unused. Where a SMILES comes first, the peptide text is derived from it. Bridges are numbered along the chain shown (N, C = ends). [ ]: non-standard residue; d: D form. The star is where a group is joined. Orn(4R-OH,5R-OCH2CH2NMe3+) = C[N+](C)(C)CCO[C@@H](N[*:3])[C@H](O)C[C@H](N[*:1])C(=O)[*:2]; pTerphenylCO(4''-OnC5H11) = CCCCCOc1ccc(-c2ccc(-c3ccc(C(=O)*)cc3)cc2)cc1; hTyr(3S-OH,4S-OH) = N[C@H](C(=O)O)[C@H](O)[C@@H](O)c1ccc(O)cc1; Pro(3S-OH,4S-Me) = C[C@H]1CN[C@H](C(=O)O)[C@H]1O; Hyp = O=C(O)[C@@H]1C[C@@H](O)CN1
Columns and labels:
[1] = Simulated exposure measures after a single 400 mg dose from individual Bayesian PK estimates, with forest plots of covariate effects; format: in vivo, human; conditions: for Half-life: from simulated concentrations during week 2 after the last dose; for Clearance: individual model-based estimates (CL); for AUC0–168h / Cmax / Cmin, 168h: single 400 mg IV dose, simulated; for Total volume of distribution at steady state: sum of individual model-based central and peripheral volumes
Method: To illustrate the relative differences in the impact of the covariates included in the final model on the exposure of rezafungin, forest plots were constructed using simulated exposure for the subjects in the analysis data set, following a single dose of 400 mg. […] Though statistically significant and included in the final model, the GMR rezafungin exposure and 90% CI of each covariate effect were not far outside of the default no effect bounds of 0.8 and 1.25.
Age was not determined to be a significant covariate of rezafungin exposure. Sixty-three patients were aged 65 years or older, with the oldest patient being […]. Thirty-eight patients were aged 65 to <75, and 25 patients were aged 75 to 89 years old. The GMR (90% CI) of AUC0–168h of these two age groups were 0.95 (0.85, 1.05) and 1.20 (1.06, 1.36), respectively, compared to patients 24 to <65 years old (n = 104). The change in exposure in patients 65 years or older is not deemed clinically meaningful.
The final PK model of rezafungin, the individual empirical Bayesian PK parameter estimates, and the individual dosing histories were used to simulate dense PK profiles for each subject using the R package mrgsolve ([33]).

[2] = mouse plasma; cited from earlier work
Method: Using each simulated patient’s Bayesian PK parameters and dose amounts, simulations were performed to obtain plasma concentration profiles. […] For the purposes of target attainment analyses, AUC0–168h after the first dose was used (day 1). Protein binding of 99.2% in mouse plasma and of 97.4% in human (presumed healthy) plasma has been reported ([34]).

[3] = cited from earlier work
Method: FIG 4 Probability of pharmacokinetic/pharmacodynamic target attainment for 400 mg rezafungin against Candida species using CLSI methodology. f, free. TEXT PRINTED IN THE PICTURE: no label printed: Candida albicans − fAUC/MIC Targets: CLSI Target: Stasis 20.5; Candida albicans − fAUC/MIC Targets: CLSI Target: 1-Log Drop in CFU 37.2; Candida glabrata − fAUC/MIC Targets: CLSI Target: Stasis 0.5; Candida glabrata − fAUC/MIC Targets: CLSI Target: 1-Log Drop in CFU 2.94; Candida parapsilosis − fAUC/MIC Targets: CLSI Target: Stasis 18.2; Candida auris − fAUC/MIC Targets: CLSI Target: Stasis 12.1; Can ... || It is noted that the target attainment (TA) methodology uses the simulated fAUC0–168h/MIC ratios; therefore, the value of plasma protein binding (PPB) influences this analysis. The free fraction of rezafungin used in the analysis was 2.6%, obtained from measuring PPB in plasma from healthy subjects. […] While there are still questions in the scientific community about how to verify information from the nonclinical model to support PK/PD-b ... || Using each simulated patient’s Bayesian PK parameters and dose amounts, simulations were performed to obtain plasma concentration profiles. […] For the purposes of target attainment analyses, AUC0–168h after the first dose was used (day 1). […]

[4] = healthy subjects, n = 94, geometric mean (geometric %CV)
[5] = healthy subjects, n = 94, mean (SD), SD
[6] = hepatic impairment, uninfected, n = 16, geometric mean (geometric %CV)
[7] = hepatic impairment, uninfected, n = 16, mean (SD), SD
[8] = patients, n = 167, geometric mean (geometric %CV)
[9] = patients, n = 167, mean (SD), SD

CCCCCOc1ccc(-c2ccc(-c3ccc(C(=O)N[C@H]4C[C@@H](O)[C@@H](OCC[N+](C)(C)C)NC(=O)[C@@H]5[C@@H](O)[C@@H](C)CN5C(=O)[C@H]([C@@H](C)O)NC(=O)[C@H]([C@H](O)[C@@H](O)c5ccc(O)cc5)NC(=O)[C@@H]5C[C@@H](O)CN5C(=O)[C@H]([C@@H](C)O)NC4=O)cc3)cc2)cc1 [rezafungin] ({pTerphenylCO(4''-OnC5H11)}-[Orn(4R-OH,5R-OCH2CH2NMe3+)]T[Hyp][hTyr(3S-OH,4S-OH)]T[Pro(3S-OH,4S-Me)]; lactam 1-C)
Half-life [1, 4]: 143.368 (9.737) h
Half-life [1, 5]: 144.039 (14.027) h
Half-life [1, 6]: 132.827 (9.457) h
Half-life [1, 7]: 133.372 (12.249) h
Half-life [1, 8]: 149.458 (18.095) h
Half-life [1, 9]: 151.960 (29.086) h
Clearance [1, 4]: 0.229 (20.266) L/h
Clearance [1, 5]: 0.234 (0.048) L/h
Clearance [1, 6]: 0.336 (21.829) L/h
Clearance [1, 7]: 0.343 (0.077) L/h
Clearance [1, 8]: 0.328 (38.396) L/h
Clearance [1, 9]: 0.350 (0.130) L/h
AUC0–168h [1, 4]: 1,070.513 (20.149) μg × h/mL
Cmax [1, 4]: 21.725 (22.466) μg/mL
Cmin, 168h [1, 4]: 3.247 (22.858) μg/mL
AUC0–168h [1, 5]: 1,091.512 (215.164) μg × h/mL
Cmax [1, 5]: 22.244 (4.789) μg/mL
Cmin, 168h [1, 5]: 3.329 (0.741) μg/mL
AUC0–168h [1, 6]: 778.250 (19.012) μg × h/mL
Cmax [1, 6]: 17.061 (16.797) μg/mL
Cmin, 168h [1, 6]: 2.113 (25.916) μg/mL
AUC0–168h [1, 7]: 791.452 (152.248) μg × h/mL
Cmax [1, 7]: 17.291 (3.017) μg/mL
Cmin, 168h [1, 7]: 2.176 (0.533) μg/mL
AUC0–168h [1, 8]: 752.507 (35.100) μg × h/mL
Cmax [1, 8]: 17.715 (35.418) μg/mL
Cmin, 168h [1, 8]: 2.097 (43.351) μg/mL
AUC0–168h [1, 9]: 798.607 (295.120) μg × h/mL
Cmax [1, 9]: 18.761 (6.448) μg/mL
Cmin, 168h [1, 9]: 2.292 (1.072) μg/mL
Fold change in AUC0-168h relative to reference, GMR (90% CI) ([1]; single 400 mg dose, Phase 2/3 patients, BMI obese (≥30 kg/m^2), n = 36, vs optimum BMI): 0.77 (0.69, 0.86)
Fold change in AUC0-168h relative to reference, GMR (90% CI) ([1]; single 400 mg dose, Phase 2/3 patients, BMI overweight (25 to <30 kg/m^2), n = 40, vs optimum BMI): 0.84 (0.75, 0.94)
Fold change in AUC0-168h relative to reference, GMR (90% CI) ([1]; single 400 mg dose, Phase 2/3 patients, BMI underweight (<18.5 kg/m^2), n = 17, vs optimum BMI): 1.03 (0.88, 1.20)
Fold change in AUC0-168h relative to reference, GMR (90% CI) ([1]; single 400 mg dose, Phase 2/3 patients, age (y) [65,75), n = 38, vs 24 to <65 years): 0.95 (0.85, 1.05)
Fold change in AUC0-168h relative to reference, GMR (90% CI) ([1]; single 400 mg dose, Phase 2/3 patients, age (y) [75,89], n = 25, vs 24 to <65 years): 1.20 (1.06, 1.36)
higher AUC0–168h in female subjects ([1]; single 400 mg dose, Phase 2/3 patients, female vs male): 21%
Fold change in AUC0-168h relative to reference, GMR (90% CI) ([1]; single 400 mg dose, Phase 2/3 patients, kidney failure (CrCL <15 mL/min) vs normal renal function): 1.16 (0.96, 1.39)
Fold change in AUC0-168h relative to reference, GMR (90% CI) ([1]; single 400 mg dose, Phase 2/3 patients, mild renal impairment (CrCL 60 to 89 mL/min) vs normal renal function): 0.95 (0.85, 1.06)
Fold change in AUC0-168h relative to reference, GMR (90% CI) ([1]; single 400 mg dose, Phase 2/3 patients, moderate renal impairment (CrCL 30 to 59 mL/min) vs normal renal function): 1.23 (1.11, 1.36)
Fold change in AUC0-168h relative to reference, GMR (90% CI) ([1]; single 400 mg dose, Phase 2/3 patients, severe renal impairment (CrCL 15 to 29 mL/min) vs normal renal function): 1.01 (0.88, 1.16)
Total volume of distribution at steady state [1, 4]: 42.312 (22.744) L
Total volume of distribution at steady state [1, 5]: 43.410 (10.265) L
Total volume of distribution at steady state [1, 6]: 56.279 (19.744) L
Total volume of distribution at steady state [1, 7]: 57.264 (10.702) L
Total volume of distribution at steady state [1, 8]: 62.434 (40.964) L
Total volume of distribution at steady state [1, 9]: 67.451 (27.744) L
Protein binding [2]: 99.2%
Protein binding ([3]; human (presumed healthy) plasma): 97.4%
free fraction ([3]; plasma from healthy subjects, used to calculate fAUC0–168h): 2.6%

From article PMC10720538, “Population pharmacokinetic modeling and target attainment analyses of rezafungin for the treatment of candidemia and invasive candidiasis” (Antimicrobial Agents and Chemotherapy, 2023)
